Data on 15 molecules can be found in ChEMBL document CHEMBL1201862, “PubChem BioAssay data set” (2004).

Calls of active or inactive are those of the source. Some results are limits rather than exact numbers.

A short description of assay [1]: Luminescence Cell-Based Dose Retest to Confirm Inhibitors of Cancer Stem Cells. [Related pubchem assays (depositor defined):AID2717, AID2721]. The class given is functional. Particulars: Homo sapiens.
Assay [2] has as its target Heat shock protein HSP 90-alpha (Homo sapiens, UniProt P07900). It is filed as functional, organism-based.
In the next assay the test system is INS1. As to the kind of experiment: beta cell apoptosis inhibitors, cytokine rescue, dose response, luminescence, retest (AID 449756).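 Also: cell death triggered by IL-1 beta plus TNF-alpha plus IFN-gamma mixture; protective hits raise ATP signal compared with cytokine alone wells.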 The class given is functional, cell-based. Particulars: Rattus norvegicus.
The nature of assay [3]: human group III sPLA2 inhibitors, dose response, biochemical, QFRET, IC50 (AID 743457).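 Also: green fluorescence rise as the enzyme cleaves BODIPY PC-A2 in liposomes; potency for inhibition of the enzyme.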
The next assay addresses Protein Wnt-3a (Mus musculus, UniProt P27467). The assay is described as follows: SAR analysis of small molecule antagonists of Gli-SUFU in a Wnt3a luminescent reporter assay. It is filed as functional.
Assay [4] is described as follows: inhibitors of HIV Env-driven cell fusion, dose response, cherry-pick (AID 652057). It is filed as functional, cell-based.
Assay [5] can be described thus: CEM21 lymphoblast cell cytotoxicity, dose response, cytotoxicity control for viral fusion inhibitor project, CellTiter-Glo luminescence, cherry-picked (AID 652042).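 Also: potency for signal decrease meaning cytotoxicity.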 It is filed as functional, cell-based.
A short description of assay [6]: ZM109 Env clade C HIV-1 fusion inhibitors, dose response, HeLa effector, CEM target cells, luciferase, cherry-pick (AID 652058). It is filed as functional, cell-based.
A short description of assay [7]: off-target signal loss in HeLa-CEM21 co-culture – HeLa F-luc CTL cells, cherry-picked, counter-screen for HIV-1 Env fusion inhibitor project, dose response (AID 652040).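 Also: potency for signal decrease marking cytotoxic or nonspecific inhibition.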 The class given is functional, cell-based.
Assay [8] in a line: inhibitors of clade B AD8 Env fusion, dose response, cell-based, cherry-pick (AID 652062).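 Also: luciferase signal from cell-cell fusion driven by HIV-1 clade B AD8 Env; potency is for inhibitors of fusion seen as a drop in luminescence.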 The class given is functional.
The next assay concerns the target Cytochrome P450 3A4 (Homo sapiens, UniProt P08684).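 Also: CYP3A4 tested as one member of a cytochrome P450 panel screen.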
Assay [9] deals with Luciferin 4-monooxygenase (Photinus pyralis, UniProt P08659). The assay is described as follows: Counter Screen for Luciferase-based Assay Positives. [Related pubchem assays: 620, 618, 411 ].
The subject of another assay is HT-1080. As to the kind of experiment: cytotoxicity in HT1080 fibrosarcoma cells, cell-based, fluorescence readout (AID 620). To be noted: Homo sapiens. The class given is functional.
In a further assay the target is Albumin (Bos taurus, UniProt P02769). As to the kind of experiment: Counterscreen for inhibitors of T-cell receptor (TCR)-CD3 interaction: Fluorescence-based biochemical high throughput dose response assay to identify inhibitors of T-cell receptor (TCR)-CD3 interaction using a TAMRA-labeled BSA probe. The class given is functional.
The next assay addresses Large T antigen (Simian virus 40, UniProt P03070). It is filed as functional, Betapolyomavirus macacae.
In assay [10] the target is T1, Histone-lysine N-methyltransferase NSD2 (Homo sapiens, UniProt O96028).
T1 sequence (O96028 whole entry): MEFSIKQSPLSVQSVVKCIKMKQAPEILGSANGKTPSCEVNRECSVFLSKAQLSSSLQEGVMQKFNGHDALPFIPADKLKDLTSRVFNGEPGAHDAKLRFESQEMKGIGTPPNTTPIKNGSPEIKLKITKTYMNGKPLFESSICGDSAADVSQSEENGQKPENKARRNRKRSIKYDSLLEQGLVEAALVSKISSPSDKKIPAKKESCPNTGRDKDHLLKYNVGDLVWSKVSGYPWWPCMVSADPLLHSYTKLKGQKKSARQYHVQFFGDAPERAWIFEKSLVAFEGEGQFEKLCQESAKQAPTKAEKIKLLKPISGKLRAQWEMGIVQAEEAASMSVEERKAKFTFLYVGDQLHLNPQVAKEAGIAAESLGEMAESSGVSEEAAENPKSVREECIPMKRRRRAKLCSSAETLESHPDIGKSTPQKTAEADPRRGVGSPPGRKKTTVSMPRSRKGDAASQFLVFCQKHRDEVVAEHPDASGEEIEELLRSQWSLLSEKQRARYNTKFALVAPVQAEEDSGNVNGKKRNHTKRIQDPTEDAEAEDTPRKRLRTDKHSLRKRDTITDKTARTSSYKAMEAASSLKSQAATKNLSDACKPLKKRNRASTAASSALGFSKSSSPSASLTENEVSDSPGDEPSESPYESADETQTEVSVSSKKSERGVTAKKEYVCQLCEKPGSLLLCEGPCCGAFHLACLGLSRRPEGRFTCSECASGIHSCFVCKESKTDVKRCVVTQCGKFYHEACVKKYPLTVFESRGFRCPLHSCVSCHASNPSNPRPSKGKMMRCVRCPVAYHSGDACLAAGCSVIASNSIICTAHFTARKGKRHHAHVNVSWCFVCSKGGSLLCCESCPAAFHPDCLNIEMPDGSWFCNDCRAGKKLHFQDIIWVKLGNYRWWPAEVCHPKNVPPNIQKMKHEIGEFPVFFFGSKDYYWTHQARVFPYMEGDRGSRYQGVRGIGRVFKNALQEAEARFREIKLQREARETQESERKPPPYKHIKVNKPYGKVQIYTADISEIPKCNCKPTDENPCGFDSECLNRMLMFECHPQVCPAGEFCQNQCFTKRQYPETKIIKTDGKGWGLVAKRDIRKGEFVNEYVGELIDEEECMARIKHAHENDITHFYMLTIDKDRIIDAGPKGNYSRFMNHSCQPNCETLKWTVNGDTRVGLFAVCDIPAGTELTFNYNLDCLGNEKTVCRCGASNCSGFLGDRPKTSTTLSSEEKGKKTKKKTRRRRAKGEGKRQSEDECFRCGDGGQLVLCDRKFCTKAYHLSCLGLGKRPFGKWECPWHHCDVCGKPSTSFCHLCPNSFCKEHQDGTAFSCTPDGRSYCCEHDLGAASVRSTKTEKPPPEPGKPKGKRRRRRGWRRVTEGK
The class given is biochemical.

Assay [11] addresses Beta-lactamase (Salmonella choleraesuis (strain SC-B67), UniProt Q5J463). As to the kind of experiment: Epi-absorbance-based counterscreen for selective VIM-2 inhibitors: dose response biochemical high throughput screening assay to identify inhibitors of TEM-1 serine-beta-lactamase.
Assay [12] addresses T2, Beta-lactamase (Pseudomonas aeruginosa, UniProt Q79MP6). As to the kind of experiment: IMP-1 metallo-beta-lactamase inhibitors, dose response, selectivity assay for VIM-2 inhibitor project, biochemical, epi-absorbance (AID 1920).
In assay [13] the target is T2, Beta-lactamase. The assay is described as follows: […] counterscreen for selective VIM-2 inhibitors: dose response biochemical high throughput screening assay to identify inhibitors of IMP-1 metallo-beta-lactamase.
Assay [14] deals with T3, Heat shock factor protein 1 (Mus musculus, UniProt P38532).
T3 sequence (P38532 whole entry): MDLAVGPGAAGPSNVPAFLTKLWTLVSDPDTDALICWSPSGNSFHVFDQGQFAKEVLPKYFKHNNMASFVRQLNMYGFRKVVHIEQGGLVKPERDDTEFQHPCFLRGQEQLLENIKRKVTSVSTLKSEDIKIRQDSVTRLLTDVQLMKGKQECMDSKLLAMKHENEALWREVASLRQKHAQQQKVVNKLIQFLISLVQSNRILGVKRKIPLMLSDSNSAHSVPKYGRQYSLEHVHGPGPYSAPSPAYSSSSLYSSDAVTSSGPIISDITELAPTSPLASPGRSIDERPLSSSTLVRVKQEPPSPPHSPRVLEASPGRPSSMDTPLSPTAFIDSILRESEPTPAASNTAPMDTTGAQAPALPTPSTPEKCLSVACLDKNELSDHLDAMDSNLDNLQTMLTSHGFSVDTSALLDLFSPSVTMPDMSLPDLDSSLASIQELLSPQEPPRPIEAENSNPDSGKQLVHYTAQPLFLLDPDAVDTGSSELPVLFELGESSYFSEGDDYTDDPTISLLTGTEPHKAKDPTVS
The assay is described as follows: HSF1 potentiators in luciferase reporter cells, confirmation, cell-based, NIH3T3, luminescence, dose retest (AID 435004).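 Also: stress induced by proteasome inhibitor MG132 added 30 min after compound; luciferase reporter driven by HSF1 response element in NIH3T3 cells; actives raise luminescence as potentiators of the MG132 stress response.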 It is filed as functional.

Assay [15] concerns the target SWI/SNF-related matrix-associated actin-dependent regulator of chromatin subfamily A member 2 (Homo sapiens, UniProt P51531). As to the kind of experiment: Luminescence-based cell-based high throughput dose response assay to identify activators of the function of SWI/SNF related, matrix associated, actin dependent regulator of chromatin, subfamily a, member 2 (SMARCA2, BRM). It is filed as functional.

Assay [16] can be described thus: Counterscreen for activators of the function of SWI/SNF related, matrix associated, actin dependent regulator of chromatin, subfamily a, member 2 (SMARCA2, BRM): Luminescence-based cell-based high throughput dose response assay to identify non-selective compounds using the VP16 reporter assay. The class given is functional.
The nature of assay [17]: inhibitors of CMV-promoter luciferase reporter, dose response, counter-screen for Pax8 inhibitor project, cell-based, HEK293, luminescence, dry powder (AID 743020). The class given is functional.
The next assay addresses Paired box protein Pax-8 (Homo sapiens, UniProt Q06710). As to the kind of experiment: inhibitors of PAX8-driven TPO luciferase reporter, dose response, RMG-I cells, cherry-pick (AID 687027).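 Also: luciferase reporter driven by Pax8 target thyroperoxidase promoter measured by SteadyGlo luminescence.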 It is filed as functional, cell-based.
Assay [18] is described as follows: inhibitors of PGC1a acetylation in cells, dose response, cell-based, cherry-picked samples (AID 720514).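 Also: potency may reflect raised or lowered acetylation signal.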 The class given is functional.
Assay [19] is described as follows: cytotoxicity in OVCAR8 ovarian cancer cells, dose response, PAX8 project, cell-based, plate reader, dry powder samples (AID 743197). The class given is functional. To be noted: OVCAR-8.
Assay [20] is described as follows: T. cruzi growth inhibition in host cells, dose response, cell-based, plate reader, dry powder, set 2 (AID 652275). The class given is functional.
Assay [21] deals with T4, Fatty acid synthase (Homo sapiens, UniProt P49327). The assay is described as follows: FAS thioesterase domain inhibitors, dose response, biochemical, endpoint fluorescence intensity, uHTS hits (AID 624327).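 Also: fluorescence from hydrolysis of an O-methyl fluorescein acyl ester substrate by the enzyme.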 It is filed as functional.
Assay [22] addresses T4, Fatty acid synthase. The assay is described as follows: FAS thioesterase domain inhibitors, dose response, biochemical, kinetic fluorescence intensity (AID 624326).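 Also: rate of fluorescence rise from hydrolysis of a fluorogenic O-methyl fluorescein ester substrate.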 It is filed as functional.

T2 sequence (Q79MP6 whole entry): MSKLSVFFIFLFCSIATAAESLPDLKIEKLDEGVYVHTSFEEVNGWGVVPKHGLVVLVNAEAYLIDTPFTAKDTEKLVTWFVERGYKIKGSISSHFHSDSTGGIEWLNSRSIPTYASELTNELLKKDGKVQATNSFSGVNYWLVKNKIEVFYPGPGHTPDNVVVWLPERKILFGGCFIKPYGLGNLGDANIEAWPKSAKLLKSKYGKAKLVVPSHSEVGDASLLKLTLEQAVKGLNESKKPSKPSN
Chain of Beta-lactamase (Salmonella choleraesuis (strain SC-B67), UniProt Q5J463) (Q5J463 whole entry): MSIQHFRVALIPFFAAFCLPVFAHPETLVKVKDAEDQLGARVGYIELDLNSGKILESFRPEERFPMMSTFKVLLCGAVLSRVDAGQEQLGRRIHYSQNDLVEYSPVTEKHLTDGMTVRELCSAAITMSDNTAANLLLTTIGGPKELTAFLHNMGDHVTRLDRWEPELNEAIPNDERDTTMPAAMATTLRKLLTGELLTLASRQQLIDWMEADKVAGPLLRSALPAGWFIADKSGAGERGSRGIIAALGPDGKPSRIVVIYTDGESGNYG
Chain of Protein Wnt-3a (P27467 whole entry, the tested form may be a part): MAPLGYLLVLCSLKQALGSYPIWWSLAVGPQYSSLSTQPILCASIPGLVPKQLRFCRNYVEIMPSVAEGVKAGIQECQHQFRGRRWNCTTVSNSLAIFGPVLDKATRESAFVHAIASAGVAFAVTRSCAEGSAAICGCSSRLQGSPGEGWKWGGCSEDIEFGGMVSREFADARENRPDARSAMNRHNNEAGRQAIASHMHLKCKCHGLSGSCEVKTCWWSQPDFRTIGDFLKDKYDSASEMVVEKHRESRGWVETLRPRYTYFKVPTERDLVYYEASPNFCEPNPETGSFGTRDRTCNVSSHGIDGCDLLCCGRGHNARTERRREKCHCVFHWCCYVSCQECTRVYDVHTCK
T4 sequence (P49327 whole entry, the tested form may be a part): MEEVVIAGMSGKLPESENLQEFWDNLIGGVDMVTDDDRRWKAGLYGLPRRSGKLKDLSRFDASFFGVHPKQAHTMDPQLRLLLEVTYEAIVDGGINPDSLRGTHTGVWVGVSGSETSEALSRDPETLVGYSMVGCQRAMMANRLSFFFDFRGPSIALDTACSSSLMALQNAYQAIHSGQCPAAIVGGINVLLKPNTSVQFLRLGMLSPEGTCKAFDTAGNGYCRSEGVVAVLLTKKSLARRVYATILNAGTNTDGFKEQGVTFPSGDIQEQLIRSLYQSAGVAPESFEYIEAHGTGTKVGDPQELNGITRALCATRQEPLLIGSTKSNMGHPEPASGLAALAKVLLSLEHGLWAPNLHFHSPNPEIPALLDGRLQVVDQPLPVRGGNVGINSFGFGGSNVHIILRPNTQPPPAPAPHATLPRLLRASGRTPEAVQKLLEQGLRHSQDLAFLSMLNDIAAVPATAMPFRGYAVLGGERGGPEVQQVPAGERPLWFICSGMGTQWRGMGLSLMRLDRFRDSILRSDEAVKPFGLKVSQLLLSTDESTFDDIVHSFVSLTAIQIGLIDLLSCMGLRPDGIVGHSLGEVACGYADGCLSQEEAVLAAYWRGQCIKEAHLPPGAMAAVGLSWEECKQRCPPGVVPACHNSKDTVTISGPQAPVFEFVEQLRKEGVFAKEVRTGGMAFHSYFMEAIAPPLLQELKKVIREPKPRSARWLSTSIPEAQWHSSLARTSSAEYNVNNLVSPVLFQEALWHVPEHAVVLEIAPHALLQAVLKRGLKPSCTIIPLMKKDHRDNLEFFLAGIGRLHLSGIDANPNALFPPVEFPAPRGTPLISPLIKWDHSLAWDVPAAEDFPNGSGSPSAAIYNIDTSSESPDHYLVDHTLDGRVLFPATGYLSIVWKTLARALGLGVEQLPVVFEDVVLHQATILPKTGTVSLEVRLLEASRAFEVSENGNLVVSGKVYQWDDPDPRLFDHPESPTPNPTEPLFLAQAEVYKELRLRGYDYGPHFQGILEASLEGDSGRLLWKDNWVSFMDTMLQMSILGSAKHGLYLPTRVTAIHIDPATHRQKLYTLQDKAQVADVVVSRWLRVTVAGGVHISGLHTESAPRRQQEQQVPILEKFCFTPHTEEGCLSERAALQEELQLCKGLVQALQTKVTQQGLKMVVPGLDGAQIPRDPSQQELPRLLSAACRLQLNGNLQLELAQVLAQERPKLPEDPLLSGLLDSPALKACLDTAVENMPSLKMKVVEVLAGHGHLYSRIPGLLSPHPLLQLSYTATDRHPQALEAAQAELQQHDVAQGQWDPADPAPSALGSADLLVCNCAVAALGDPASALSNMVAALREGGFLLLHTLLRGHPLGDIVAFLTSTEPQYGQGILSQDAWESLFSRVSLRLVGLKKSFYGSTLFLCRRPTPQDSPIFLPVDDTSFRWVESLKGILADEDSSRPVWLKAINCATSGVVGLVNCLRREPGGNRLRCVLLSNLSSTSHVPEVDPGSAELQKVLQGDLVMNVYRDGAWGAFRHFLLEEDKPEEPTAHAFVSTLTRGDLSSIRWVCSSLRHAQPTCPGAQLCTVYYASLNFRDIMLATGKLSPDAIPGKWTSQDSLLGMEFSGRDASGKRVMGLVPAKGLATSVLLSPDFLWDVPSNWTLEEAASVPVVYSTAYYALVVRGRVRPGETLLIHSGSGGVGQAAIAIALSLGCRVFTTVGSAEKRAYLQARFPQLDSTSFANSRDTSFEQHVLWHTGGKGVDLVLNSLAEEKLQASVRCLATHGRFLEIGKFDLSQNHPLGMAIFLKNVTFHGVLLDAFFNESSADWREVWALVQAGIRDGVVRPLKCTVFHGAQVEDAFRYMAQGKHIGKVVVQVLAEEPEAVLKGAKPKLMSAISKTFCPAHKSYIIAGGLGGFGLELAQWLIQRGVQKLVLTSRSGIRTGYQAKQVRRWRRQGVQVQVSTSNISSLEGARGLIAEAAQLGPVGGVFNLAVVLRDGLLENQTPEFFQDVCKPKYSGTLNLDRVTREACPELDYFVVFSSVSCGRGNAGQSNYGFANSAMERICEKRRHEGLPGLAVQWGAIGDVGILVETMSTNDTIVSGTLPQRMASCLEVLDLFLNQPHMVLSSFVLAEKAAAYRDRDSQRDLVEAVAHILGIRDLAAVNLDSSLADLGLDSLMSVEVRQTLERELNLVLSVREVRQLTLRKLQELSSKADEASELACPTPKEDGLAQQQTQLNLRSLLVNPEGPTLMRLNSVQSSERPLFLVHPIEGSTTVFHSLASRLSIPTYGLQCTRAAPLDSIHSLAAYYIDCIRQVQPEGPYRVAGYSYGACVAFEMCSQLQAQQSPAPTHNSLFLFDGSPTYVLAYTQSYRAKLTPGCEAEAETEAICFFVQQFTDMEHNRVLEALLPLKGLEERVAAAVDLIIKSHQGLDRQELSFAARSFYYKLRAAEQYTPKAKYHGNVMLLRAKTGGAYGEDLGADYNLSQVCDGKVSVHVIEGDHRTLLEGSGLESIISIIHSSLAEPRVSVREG
Chain of Albumin (P02769 whole entry): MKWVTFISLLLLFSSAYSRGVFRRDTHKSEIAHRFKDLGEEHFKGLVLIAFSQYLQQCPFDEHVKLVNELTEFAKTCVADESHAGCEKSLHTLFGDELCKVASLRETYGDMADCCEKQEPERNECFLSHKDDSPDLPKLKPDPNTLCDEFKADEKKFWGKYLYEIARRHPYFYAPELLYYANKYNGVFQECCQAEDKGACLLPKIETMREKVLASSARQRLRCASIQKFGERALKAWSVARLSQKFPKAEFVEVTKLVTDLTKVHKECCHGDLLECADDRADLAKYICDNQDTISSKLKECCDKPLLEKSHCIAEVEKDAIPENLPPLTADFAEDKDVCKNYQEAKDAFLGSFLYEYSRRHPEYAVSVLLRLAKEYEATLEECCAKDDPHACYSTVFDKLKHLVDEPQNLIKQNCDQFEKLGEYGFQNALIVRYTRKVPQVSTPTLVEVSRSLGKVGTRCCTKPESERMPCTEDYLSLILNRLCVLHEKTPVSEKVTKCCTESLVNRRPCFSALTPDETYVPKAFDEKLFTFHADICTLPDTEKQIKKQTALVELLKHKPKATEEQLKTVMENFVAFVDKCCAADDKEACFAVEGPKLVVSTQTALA
Chain of Luciferin 4-monooxygenase (P08659 whole entry): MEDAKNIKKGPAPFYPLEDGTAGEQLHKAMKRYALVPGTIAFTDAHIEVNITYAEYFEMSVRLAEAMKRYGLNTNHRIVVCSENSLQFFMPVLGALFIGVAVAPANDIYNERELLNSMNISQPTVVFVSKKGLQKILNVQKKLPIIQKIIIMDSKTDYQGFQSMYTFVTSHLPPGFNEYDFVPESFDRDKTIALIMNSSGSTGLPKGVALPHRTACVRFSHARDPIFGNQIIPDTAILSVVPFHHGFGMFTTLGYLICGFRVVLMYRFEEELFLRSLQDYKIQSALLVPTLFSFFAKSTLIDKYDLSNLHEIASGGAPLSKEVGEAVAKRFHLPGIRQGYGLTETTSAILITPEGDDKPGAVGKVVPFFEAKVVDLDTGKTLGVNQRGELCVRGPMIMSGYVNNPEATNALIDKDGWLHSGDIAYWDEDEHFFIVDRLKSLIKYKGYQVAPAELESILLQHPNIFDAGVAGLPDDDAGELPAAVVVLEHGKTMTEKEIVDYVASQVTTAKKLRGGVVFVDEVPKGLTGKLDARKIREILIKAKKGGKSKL
Chain of Paired box protein Pax-8 (Q06710 whole entry): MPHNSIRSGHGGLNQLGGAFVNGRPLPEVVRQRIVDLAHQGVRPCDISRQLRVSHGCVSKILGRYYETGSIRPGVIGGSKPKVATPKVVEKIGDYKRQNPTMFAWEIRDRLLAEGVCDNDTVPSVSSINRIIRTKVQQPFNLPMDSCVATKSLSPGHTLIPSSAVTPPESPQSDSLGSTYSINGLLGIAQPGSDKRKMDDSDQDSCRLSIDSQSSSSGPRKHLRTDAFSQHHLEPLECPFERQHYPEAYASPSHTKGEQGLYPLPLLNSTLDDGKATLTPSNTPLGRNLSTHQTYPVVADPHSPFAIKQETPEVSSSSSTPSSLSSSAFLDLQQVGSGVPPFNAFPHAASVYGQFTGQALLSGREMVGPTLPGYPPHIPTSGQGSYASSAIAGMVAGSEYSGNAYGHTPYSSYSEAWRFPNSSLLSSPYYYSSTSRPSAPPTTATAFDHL

For `O=C(/C=C/c1ccccc1)NC(=S)NNC(=O)c1cnccn1`, the AC50 in [1] is 8.78 µM (active); in [2] it was 2.87 µM (active); with INS1, 1.39 µM (active). The IC50 in assay [3] was 66.8 µM (inactive).

Turning to `O=C(Nc1cc(N2CCCCC2)ncn1)c1ccccc1`, at Protein Wnt-3a, the IC50 was > 21.8 µM (inactive).

Turning to `O=S1(=O)CCN(c2ccccc2CC(c2c[nH]c3ccccc23)c2c[nH]c3ccccc23)CC1`, the AC50 in assay [4] was < 0.26 µM (active); in [5] it was 24.6 µM (active); in [6] it was < 0.26 µM (active); in [7] it was 0.555 µM (active); in assay [8], 1.06 µM (active); on Cytochrome P450 3A4, 2.51 µM (inconclusive).

Turning to `Cc1ccc2nc(-c3cc(N)cc(N)c3)oc2c1`, the EC50 in assay [9] was 1.01 µM (active); in the assay on HT-1080 it was > 50 µM (not active). For the same molecule, the IC50 in assay [3] was > 122 µM (inactive).

Turning to `COc1cc(Br)cc2cc(C(=O)N3CCN(C(=O)c4ccco4)CC3)c(=O)oc12`, the IC50 at Albumin was > 94.1 µM (inactive).

For the molecule `Cc1c(CC(=O)N2CCN(C(=O)C3COc4ccccc4O3)CC2)c(=O)oc2c(O)c(O)ccc12` (stereo unspecified), the half-inhibitory concentration (IC50) on Large T antigen is 2.43 µM (active); at Albumin, > 94.1 µM (inactive). For the same molecule, in assay [10], the AC50 was 3.53 µM (active).

For the molecule `O=C(CSc1nnc(NC(=O)c2ccccc2F)s1)NCc1ccc(F)cc1`, the IC50 at Beta-lactamase [11], on Beta-lactamase [12] and at Beta-lactamase [13] was > 59.6 µM (inactive) each time.

As for `CCCc1cc(=O)oc2c3c(cc(OCC(=O)N[C@@H](C)C(=O)O)c12)OC(C)(C)CC3`, the IC50 on Beta-lactamase [11], at Beta-lactamase [12] and at Beta-lactamase [13] was > 59.6 µM (inactive) throughout. Also, the EC50 in [14] was > 260 µM (inactive).

On to `NC(CCc1ccccc1)c1csc(Nc2ccccn2)n1` (stereo unspecified), for which the AC50 in assay [4] is 6.61 µM (active); in [5], 38.1 µM (active); in assay [6], 7.52 µM (active); in assay [7] it was 3.22 µM (active); in assay [8] it was 22.6 µM (active).

For `CCCCCCN[C@H]1CCC2C3CC=C4C[C@@H](O)CC[C@]4(C)C3CC[C@@]21C` (stereo partly specified), the EC50 in assay [15] and in assay [16] was > 91.2 µM (inactive) each time.

Take `C[C@@H]1CN([C@@H](C)CO)C(=O)CCCn2nncc2CO[C@H]1CN(C)S(=O)(=O)c1ccc(Cl)cc1`: the AC50 in [17] is < 1 µM (active).

For the molecule `C[C@@H]1CCCCO[C@H](CN(C)Cc2ccc3c(c2)OCO3)[C@@H](C)CN([C@@H](C)CO)C(=O)c2cc(NC(=O)Nc3ccc(C(F)(F)F)cc3)ccc2O1`, the AC50 is 17.3 µM (active) on Paired box protein Pax-8, 11.3 µM (active) in [18], 41.9 µM (active) in assay [17] and 19.6 µM (active) in assay [19].

As to `CN1CCN(c2cc(NC(=O)c3ccccc3)ncn2)CC1`, the IC50 on Protein Wnt-3a is > 21.8 µM (inactive).

As for `O=C(Cc1ccccn1)N1CCCCN2[C@@H](CO)[C@H](c3ccc(Br)cc3)[C@@H]2C1`, in assay [20], the AC50 was 2.31 µM (active).

For `COc1ccc(/C=N\NC(=O)CNC(=O)C(c2ccccc2)c2ccccc2)cc1[N+](=O)[O-]`, the IC50 at Fatty acid synthase [21] was 16.6 µM (active); at Fatty acid synthase [22], 12.3 µM (active).
